Data reported in the supplement of paper PMC10307832.

Tests used:
Assay in all cases: relative viability (nuclei count vs DMSO), 5 days (fraction); higher = more cells survive
LCLC-97TM1 = tested on: LCLC-97TM1
In short: (§1)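 Relative viability was taken as the ratio of nuclei in treated wells to nuclei in vehicle wells. Lung cancer cell lines in 1536-well plates received compounds by pin tool one day after seeding, either one drug alone or a fixed anchor-drug dose plus five library-drug doses (not always all listed) in √10 steps. Nuclei were counted on 4× images after 5 days of treatment, and values are medians of duplicate plates.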

HCC-15 = tested on: HCC-15
In short: as §1

NCI-H1734 = tested on: NCI-H1734
In short: as §1

ChaGo-K-1 = tested on: ChaGo-K-1
In short: as §1

NCI-H2009 = tested on: NCI-H2009
In short: as §1

NCI-H441 = tested on: NCI-H441
In short: as §1

NCI-H460 = tested on: NCI-H460
In short: as §1

COR-L23 = tested on: COR-L23
In short: as §1

RERF-LC-KJ = tested on: RERF-LC-KJ
In short: as §1

LOU-NH91 = tested on: LOU-NH91
In short: as §1

NCI-H2023 = tested on: NCI-H2023
In short: as §1

NCI-H2126 = tested on: NCI-H2126
In short: as §1

201T = tested on: 201T
In short: as §1

HCC-44 = tested on: HCC-44
In short: as §1

NCI-H1993 = tested on: NCI-H1993
In short: as §1

HCC-78 = tested on: HCC-78
In short: as §1

A-427 = tested on: A-427
In short: as §1

SW 1573 = tested on: SW 1573
In short: as §1

HCC-366 = tested on: HCC-366
In short: as §1

HARA = tested on: HARA
In short: as §1

NCI-H650 = tested on: NCI-H650
In short: as §1

NCI-H1650 = tested on: NCI-H1650
In short: as §1

LCLC-103H = tested on: LCLC-103H
In short: as §1

Cc1cnc(-c2cnc(NCCNc3ccc(C#N)cn3)nc2-c2ccc(Cl)cc2Cl)[nH]1 + Nc1nc2[nH]cc(CCc3ccc(C(=O)N[C@@H](CCC(=O)O)C(=O)O)cc3)c2c(=O)[nH]1 [Pemetrexed] (partner 0.2 µM)
relative viability (LCLC-97TM1; first compound 0.08 µM): 0.176
relative viability (LCLC-97TM1; first compound 0.253 µM): 0.183
relative viability (LCLC-97TM1; first compound 0.8 µM): 0.173
relative viability (LCLC-97TM1; first compound 2.53 µM): 0.188
relative viability (HCC-15; first compound 0.08 µM): 0.207
relative viability (HCC-15; first compound 0.253 µM): 0.219
relative viability (HCC-15; first compound 0.8 µM): 0.216
relative viability (HCC-15; first compound 2.53 µM): 0.194
relative viability (NCI-H1734; first compound 0.08 µM): 0.445
relative viability (NCI-H1734; first compound 0.253 µM): 0.371
relative viability (NCI-H1734; first compound 0.8 µM): 0.395
relative viability (NCI-H1734; first compound 2.53 µM): 0.323
relative viability (ChaGo-K-1; first compound 0.08 µM): 0.252
relative viability (ChaGo-K-1; first compound 0.253 µM): 0.265
relative viability (ChaGo-K-1; first compound 0.8 µM): 0.259
relative viability (ChaGo-K-1; first compound 2.53 µM): 0.248
relative viability (NCI-H2009; first compound 0.08 µM): 0.966
relative viability (NCI-H2009; first compound 0.253 µM): 0.983
relative viability (NCI-H2009; first compound 0.8 µM): 0.982
relative viability (NCI-H2009; first compound 2.53 µM): 0.95
relative viability (NCI-H441; first compound 0.08 µM): 0.271
relative viability (NCI-H441; first compound 0.8 µM): 0.279
relative viability (NCI-H441; first compound 2.53 µM): 0.236
relative viability (NCI-H460; first compound 0.08 µM): 0.073
relative viability (NCI-H460; first compound 0.253 µM): 0.0754
relative viability (NCI-H460; first compound 0.8 µM): 0.0676
relative viability (NCI-H460; first compound 2.53 µM): 0.0722
relative viability (COR-L23; first compound 0.08 µM): 0.191
relative viability (COR-L23; first compound 0.253 µM): 0.19
relative viability (COR-L23; first compound 0.8 µM): 0.198
relative viability (COR-L23; first compound 2.53 µM): 0.185
relative viability (RERF-LC-KJ; first compound 0.08 µM): 0.496
relative viability (RERF-LC-KJ; first compound 0.253 µM): 0.458
relative viability (RERF-LC-KJ; first compound 0.8 µM): 0.4
relative viability (RERF-LC-KJ; first compound 2.53 µM): 0.424
relative viability (LOU-NH91; first compound 0.08 µM): 0.376
relative viability (LOU-NH91; first compound 0.253 µM): 0.383
relative viability (LOU-NH91; first compound 0.8 µM): 0.399
relative viability (LOU-NH91; first compound 2.53 µM): 0.349
relative viability (NCI-H2023; first compound 0.08 µM): 0.283
relative viability (NCI-H2023; first compound 0.253 µM): 0.229
relative viability (NCI-H2023; first compound 0.8 µM): 0.199
relative viability (NCI-H2023; first compound 2.53 µM): 0.261
relative viability (NCI-H2126; first compound 0.08 µM): 0.706
relative viability (NCI-H2126; first compound 0.253 µM): 0.642
relative viability (NCI-H2126; first compound 0.8 µM): 0.634
relative viability (NCI-H2126; first compound 2.53 µM): 0.618
relative viability (201T; first compound 0.08 µM): 0.316
relative viability (201T; first compound 0.8 µM): 0.345
relative viability (201T; first compound 2.53 µM): 0.301
relative viability (HCC-44; first compound 0.08 µM): 0.633
relative viability (HCC-44; first compound 0.253 µM): 0.631
relative viability (HCC-44; first compound 0.8 µM): 0.643
relative viability (HCC-44; first compound 2.53 µM): 0.685
relative viability (NCI-H1993; first compound 0.08 µM): 0.6
relative viability (NCI-H1993; first compound 0.253 µM): 0.512
relative viability (NCI-H1993; first compound 0.8 µM): 0.535
relative viability (NCI-H1993; first compound 2.53 µM): 0.519
relative viability (HCC-78; first compound 0.08 µM): 0.893
relative viability (HCC-78; first compound 0.253 µM): 0.839
relative viability (HCC-78; first compound 0.8 µM): 0.897
relative viability (HCC-78; first compound 2.53 µM): 0.938
relative viability (A-427; first compound 0.08 µM): 0.981
relative viability (A-427; first compound 0.253 µM): 0.901
relative viability (A-427; first compound 0.8 µM): 0.928
relative viability (A-427; first compound 2.53 µM): 0.927
relative viability (SW 1573; first compound 0.08 µM): 1.06
relative viability (SW 1573; first compound 0.253 µM): 0.797
relative viability (SW 1573; first compound 0.8 µM): 0.551
relative viability (SW 1573; first compound 2.53 µM): 0.364
relative viability (HCC-366; first compound 0.08 µM): 0.161
relative viability (HCC-366; first compound 0.253 µM): 0.137
relative viability (HCC-366; first compound 0.8 µM): 0.133
relative viability (HCC-366; first compound 2.53 µM): 0.126
relative viability (HARA; first compound 0.08 µM): 0.277
relative viability (HARA; first compound 0.253 µM): 0.207
relative viability (HARA; first compound 0.8 µM): 0.255
relative viability (HARA; first compound 2.53 µM): 0.235
relative viability (NCI-H650; first compound 0.08 µM): 0.915
relative viability (NCI-H650; first compound 0.253 µM): 0.92
relative viability (NCI-H650; first compound 0.8 µM): 0.934
relative viability (NCI-H650; first compound 2.53 µM): 0.904
relative viability (NCI-H1650; first compound 0.08 µM): 0.356
relative viability (NCI-H1650; first compound 0.253 µM): 0.361
relative viability (NCI-H1650; first compound 0.8 µM): 0.315
relative viability (NCI-H1650; first compound 2.53 µM): 0.289
relative viability (LCLC-103H; first compound 0.08 µM): 0.49
relative viability (LCLC-103H; first compound 0.253 µM): 0.43
relative viability (LCLC-103H; first compound 0.8 µM): 0.453
relative viability (LCLC-103H; first compound 2.53 µM): 0.418
